In US6951843B2, “Peptide derivatives and their pharmaceutically acceptable salts, thereof, processes for preparation of both and use thereof” (priority 2000, dated 2005):

SMILES	melting point
COC(=O)C(O)[C@H](CCCCNC(=O)OC(C)(C)C)NC(=O)[C@H](CCC(=O)OC(C)(C)C)NC(=O)OCc1ccccc1 (stereo partly shown)	101 to 103 °C
CC(C)(C)OC(=O)CC[C@H](NC(=O)OCc1ccccc1)C(=O)N[C@@H](CCCCNC(=O)OC(C)(C)C)C(O)C(=O)NCCc1ccccc1 (stereo partly shown)	82 to 85 °C
CC(C)(C)OC(=O)NCCCC[C@H](NC(=O)[C@H](CCC(N)=O)NC(=O)OCc1ccccc1)C(O)C(=O)NCc1ccccc1 (stereo partly shown)	138 to 141 °C
CNC(=O)CC[C@H](NC(=O)OCc1ccccc1)C(=O)N[C@@H](CCCCNC(=O)OC(C)(C)C)C(O)C(=O)NCc1ccccc1 (stereo partly shown)	147 to 149 °C
CC(C)(C)OC(=O)NCCCC[C@H](NC(=O)[C@H](CCC(=O)NCCNC(=O)OC(C)(C)C)NC(=O)OCc1ccccc1)C(O)C(=O)NCc1ccccc1 (stereo partly shown)	170 to 172 °C
CN(C)NC(=O)CC[C@H](NC(=O)OCc1ccccc1)C(=O)N[C@@H](CCCCNC(=O)OC(C)(C)C)C(O)C(=O)NCc1ccccc1 (stereo partly shown)	123 to 125 °C
CN(NC(=O)CC[C@H](NC(=O)OCc1ccccc1)C(=O)N[C@@H](CCCCNC(=O)OC(C)(C)C)C(O)C(=O)NCc1ccccc1)c1ccccc1 (stereo partly shown)	170 to 173 °C
CN(C)C(=O)[C@H](Cc1ccccc1)NC(=O)C(=O)[C@H](CCCCNC(=O)OC(C)(C)C)NC(=O)[C@H](CCC(=O)OC(C)(C)C)NC(=O)OCc1ccccc1	102 to 104 °C
CC(C)C[C@H](NC(=O)C(=O)[C@H](CCCCNC(=O)OC(C)(C)C)NC(=O)[C@H](CCC(=O)OC(C)(C)C)NC(=O)OCc1ccccc1)C(=O)N(C)C	119 to 122 °C
CC(C)(C)OC(=O)CC[C@H](NC(=O)OCc1ccccc1)C(=O)N[C@@H](CCCCNC(=O)OC(C)(C)C)C(O)C(=O)O (stereo partly shown)	48 to 50 °C
CN(C)C(=O)[C@H](CCC(=O)OC(C)(C)C)NC(=O)C(=O)[C@H](CCCCNC(=O)OC(C)(C)C)NC(=O)[C@H](CCC(=O)OC(C)(C)C)NC(=O)OCc1ccccc1	127 to 130 °C
CN(C)C(=O)[C@H](CC(N)=O)NC(=O)C(=O)[C@H](CCCCNC(=O)OC(C)(C)C)NC(=O)[C@H](CCC(=O)OC(C)(C)C)NC(=O)OCc1ccccc1	122 to 124 °C
CN(C)C(=O)[C@H](CCCCNC(=O)OC(C)(C)C)NC(=O)C(=O)[C@H](CCCCNC(=O)OC(C)(C)C)NC(=O)[C@H](CCC(=O)OC(C)(C)C)NC(=O)OCc1ccccc1	152 to 155 °C
CCCNC(=O)C(=O)[C@H](CCCCNC(=O)OC(C)(C)C)NC(=O)[C@H](CCC(=O)OC(C)(C)C)NC(=O)OCc1ccccc1	131 to 133 °C
CC(C)(C)OC(=O)CC[C@H](NC(=O)OCc1ccccc1)C(=O)N[C@@H](CCCCNC(=O)OC(C)(C)C)C(=O)C(=O)NCc1ccccc1	130 to 132 °C
CC(C)(C)OC(=O)CC[C@H](NC(=O)OCc1ccccc1)C(=O)N[C@@H](CCCCNC(=O)OC(C)(C)C)C(=O)C(=O)NCCc1ccccc1	148 to 150 °C
CC(C)(C)OC(=O)NCCCC[C@H](NC(=O)[C@H](CCC(N)=O)NC(=O)OCc1ccccc1)C(=O)C(=O)NCc1ccccc1	193 to 195 °C
CNC(=O)CC[C@H](NC(=O)OCc1ccccc1)C(=O)N[C@@H](CCCCNC(=O)OC(C)(C)C)C(=O)C(=O)NCc1ccccc1	189 to 192 °C
CC(C)(C)OC(=O)NCCCC[C@H](NC(=O)[C@H](CCC(=O)NCCNC(=O)OC(C)(C)C)NC(=O)OCc1ccccc1)C(=O)C(=O)NCc1ccccc1	157 to 159 °C
